Measurements published in patent publication US20130317094A1, “USE OF ELLAGITANNINS AS INHIBITORS OF BACTERIAL QUORUM SENSING” (priority 2008, published 2013).

Columns and labels:
LasA protease = test: LasA staphylolytic assay of culture supernatants; format: cell-based, Pseudomonas aeruginosa; conditions: for LasA Activity: PAO1 grown with 40 μg/ml of sample; for decrease in LasA activity compared to control: crude extract printed 40 pg/ml, purified compounds 40 μg/ml
Method: LasA belongs to the p-lytic endopeptidase class of proteases (Kessler, 1995) and plays a major role in host tissue degradation (Kharazmi, 1989; Morihara & Homma, 1985). LasA protease activity was determined by measuring the ability of culture supernatants to lyse boiled S. aureus cells (Kong et al., Int. J. Med. Microbiol., 296:133-139, 2006). There was a significant decrease in LasA activity compared to that of the control when strain PAO1 was grown in the presence of C. erectus crude extract at 1 mg/ml (91% decrease), and a lesser effect at […] (26% decrease) (Table 1). Purified vescalagin and castalagin affected significant reductions in LasA activity as well, with decreases of 73% and 80%, respectively (Table 1).

LasB elastase = test: LasB elastolytic activity of culture supernatants (elastin Congo red); format: cell-based, Pseudomonas aeruginosa; conditions: for decrease in LasB activity compared to control: 40 ug/ml; for Elastase Activity: PAO1 grown with 40 μg/ml of sample
Method: LasB elastase is a zinc metalloprotease capable of affecting the host immune system and destroying biological tissue (Bever & Iglewski, 1988). The elastolytic activity of culture supernatants was determined using elastin Congo red (ECR; Sigma, St. Louis, Mo.) (Ohman et al., 1980). There was a significant decrease in LasB activity compared to that of the control when PAO1 was grown in the presence of C. erectus at 1 mg/ml (70% decrease) or 40 ug/ml (60% decrease) (Table 1). Purified vescalagin and castalagin also affected significant reductions in LasB activity, with decreases of 67% and 63%, respectively (Table 1).

pyoverdin = test: Pyoverdin production (supernatant fluorescence); format: cell-based, Pseudomonas aeruginosa; conditions: PAO1 grown with 40 μg/ml of sample
Text: Pyoverdins function as siderophores essentially starving host tissues by competing with mammalian transferrin for iron. They also promote pathogenicity by stimulating bacterial growth (Cox & Adams, 1985), while auto-regulating themselves and the production of other toxins. Relative concentration of pyoverdin was based on fluorescence of the supernatant at an excitation wavelength of 405 nm and an emission wavelength of 465 nm (Gemini EM microplate reader). […] This is consistent with our previous data on C. erectus (Adonizio et al., 2008b).

C12-AHL (OdDHL) = test: AHL production, C12-AHL; format: cell-based, Pseudomonas aeruginosa; conditions: 40 μg/ml of sample
Text: (§1) P. aeruginosa manufactures two main QS signaling molecules N-(3-oxododecanoyl)-L-homoserine lactone (OdDHL) and N-butanoyl-L-homoserine lactone (BHL) called autoinducers (Pearson et al., Proc. Natl. Acad. Sci. USA, 92:1490-1494, 1994). These molecules diffuse into the environment, and when they reach a putative threshold concentration, they activate the QS receptor genes.

C4-AHL (BHL) = test: AHL production, C4-AHL; format: cell-based, Pseudomonas aeruginosa; conditions: for AHL production C4-AHL: 40 μg/ml of sample
Text: as §1

lasI = test: QS gene expression, promoter-lacZ fusion β-galactosidase assay, lasI; format: cell-based, Pseudomonas aeruginosa; conditions: 40 μg/ml of sample
Method: (§2) Samples were tested at the following concentrations: 1 mg/ml crude extract of C. erectus, 40 μg/ml crude extract, 40 μg/ml vescalagin, or 40 μg/ml castalagin. These additions were compared to a media-only control for the reduction of QS.

lasR = conditions: 40 μg/ml of sample
Method: as §2

rhlI = conditions: 40 μg/ml of sample
Method: as §2

rhlR = conditions: 40 μg/ml of sample
Method: as §2

[1] = system: QS genes (lasI, lasR, rhlI, rhlR); test: QS gene expression, summary over all tested QS genes; format: cell-based, Pseudomonas aeruginosa; conditions: 40 μg/ml
Method: as §2

[2] = system: P. aeruginosa PAO1-derived biomonitor strains pPCS 1001 and pPCS 1002; test: Anti-QS agar well bioassay with lacZ biomonitor strains; format: cell-based, Pseudomonas aeruginosa; conditions: 10 μl aliquot per well
Method: These strains harbor lacZ fusions to the QS gene promoter regions enabling blue/white selection for QS activity. […] Briefly, LB agar plates were seeded with a lawn of one of the biomonitor strains and allowed to dry for 1 hour. Small wells were then cut and aspirated from the agar, and 10 μl aliquots of each fraction were pipetted into each well. Wells were checked at 18 h and 24 h for zones of QS inhibition.
Each fraction was pipetted into a small well in an agar plate seeded with one of these biomonitor strains and the appropriate reagents for visualization of lacZ activity.

LasB = conditions: P. putida grown in the presence of 30 μg/ml; cited from earlier work
P. putida = conditions: concentrations up to 30 μg/ml; cited from earlier work

O=C1OC[C@H]2OC(=O)c3cc(O)c(O)c(O)c3-c3c(O)c(O)c(O)c4c3C(=O)O[C@H]([C@H]3OC(=O)c5c-4c(O)c(O)c(O)c5[C@H]3O)[C@@H]2OC(=O)c2cc(O)c(O)c(O)c2-c2c1cc(O)c(O)c2O [Castalagin, castalagin]
LasA Activity (LasA protease): 0.048 ± 0.003 reduction in OD600/hour per μg total protein | decrease in LasA activity compared to control (LasA protease): 80% | decrease in LasB activity compared to control (LasB elastase): 63% | Elastase Activity (LasB elastase): 52.7 ± 9.0 absorbance at OD495 per μg of protein × 1000 | Pyoverdin production (pyoverdin): 4207 ± 150 fluorescence (405/465 nm) per μg of protein | AHL production C12-AHL (C12-AHL (OdDHL)): 1.389 ± 0.20 µM | AHL production C4-AHL (C4-AHL (BHL)): 0.703 ± 0.01 µM | Gene Expression (measured via β-galactosidase activity of the lacZ fusion products) las1 (lasI): 2465 ± 116 Milller Units | Gene Expression (measured via β-galactosidase activity of the lacZ fusion products) lasR (lasR): 2160 ± 509 Milller Units | Gene Expression (measured via β-galactosidase activity of the lacZ fusion products) rhll (rhlI): 4542 ± 199 Milller Units | Gene Expression (measured via β-galactosidase activity of the lacZ fusion products) rhlR (rhlR): 4904 ± 348 Milller Units | effect on expression of QS genes [1]: reduced all QS gene levels save for rhlI | anti-QS activity of HPLC fractions of Fraction A [2]: activity

O=C1OCC2OC(=O)c3cc(O)c(O)c(O)c3-c3c(O)c(O)c(O)c4c3C(=O)OC(C2OC(=O)c2cc(O)c(O)c(O)c2-c2c1cc(O)c(O)c2O)C1OC(=O)c2c-4c(O)c(O)c(O)c2C1O (centres unmarked) [Vescalagin, vescalagin]
LasA Activity (LasA protease): 0.066 ± 0.008 reduction in OD600/hour per μg total protein | decrease in LasA activity compared to control (LasA protease): 73% | decrease in LasB activity compared to control (LasB elastase): 67% | Elastase Activity (LasB elastase): 47.2 ± 6.8 absorbance at OD495 per μg of protein × 1000 | Pyoverdin production (pyoverdin): 4226 ± 138 fluorescence (405/465 nm) per μg of protein | AHL production C12-AHL (C12-AHL (OdDHL)): 1.227 ± 0.16 µM | AHL production C4-AHL (C4-AHL (BHL)): 0.489 ± 0.01 µM | reduction of BHL levels (C4-AHL (BHL); purified compound, 40 μg/ml): 21% | Gene Expression (measured via β-galactosidase activity of the lacZ fusion products) las1 (lasI): 2049 ± 93 Milller Units | Gene Expression (measured via β-galactosidase activity of the lacZ fusion products) lasR (lasR): 1703 ± 297 Milller Units | Gene Expression (measured via β-galactosidase activity of the lacZ fusion products) rhll (rhlI): 3514 ± 306 Milller Units | Gene Expression (measured via β-galactosidase activity of the lacZ fusion products) rhlR (rhlR): 4129 ± 287 Milller Units | effect on expression of QS genes [1]: reduced all QS gene levels including rhlI to a greater extent than castalagin | anti-QS activity of HPLC fractions of Fraction A [2]: activity

O=c1oc2c(O)c(O)cc3c(=O)oc4c(O)c(O)cc1c4c23 [ellagic acid]
decrease in LasB activity (LasB): 40% | effect on growth (P. putida): no effect
